This is an account of results in paper PMC9046208, “Foldamers reveal and validate therapeutic targets associated with toxic α-synuclein self-assembly” (Nature Communications, 2022).

One experiment deals with Aβ42 (Homo sapiens, UniProt P05067). The experiment in a line: Fluorescence polarization titration, SK-129F with Aβ42. The settings on record: FP, higher Kd for Aβ42. The class given is binding. How it is done:
All Fluorescence Polarization (FP) experiments were conducted on a Varian Cary Eclipse fluorometer (Agilent, Santa Clara, CA) equipped with a polarizer. The stock solutions of αS, 1 mM or 100 μM in 1x PBS buffer, were serially added into a solution of 10 μM SK-129F (300 μL in 1x PBS buffer) while stirring in a quartz cuvette (Fireflysci, Staten Island, NY). All FP measurements were conducted in triplicates in 20 mM Tris, 100 mM NaCl, pH 7.2 at 20 °C. The excitation and emissions wavelengths were set at 490 nm and 520 nm, respectively. Each titration was equilibrated for five min before measurements were taken for the next addition of αS solution. The addition of αS solution was continuous until no more change in the FP signal was observed. Similar conditions were used for the titration of various αS mutants and Aβ42 peptide against SK-129F. A stock solution of Aβ42 (1 mM or 100 μM in 1x PBS buffer on ice) was sequentially added to a solution of 10 μM SK-129F (300 μL in 1x PBS buffer) until no more change in the FP signal was observed. The polarization of each point was calculated using Eq. 1:1 FP=I∥−I⊥/I∥+I⊥ Where I∥ is fluorescence intensity parallel to the excitation plane and I⊥ is fluorescence intensity perpendicular to the excitation plane. […]

The next experiment relates to NL5901. The experiment in a line: αS-YFP inclusion count in C elegans NL5901. The class given is in vivo. The settings on record: NL5901, 15 μM SK-129, day 8 of adulthood; untreated ~33. As for the experimental part:
The assay was carried out based on a previous protocol[57] with slight modifications. On day one, N2 and NL5901 strains were synchronized through the bleaching process involving egglay and the incubation of the eggs at an ambient temperature (~23 °C) on a solution of 3 mL NGM media in 60 mm culture plates (CytoOne, USA Scientific, Ocala, FL). The plates were seeded with 300 µL OP50 at an O.D. of 0.5 for 30 h. Simultaneously, a solution of 15 µM SK-129 (Stock solution concentration = 10 mM in DMSO) was made in M9 buffer and added to two sterilized 35 mm NGM solid media plates (Fisher Scientific, Pittsburgh, PA). The plates were already containing 2 mL of NGM solid media and 75 µM Fluorodeoxyuridine (FUDR) to prevent offspring in the worms. […] On day five, motility assay was conducted for worms under different conditions in duplicate using a WMicroTracker Arena plate reader (Phylumtech, Argentina) at ~23 °C for 1 h per day over a period of 12 days. […]
The worms from the NL5901 strain were treated in the absence and presence of SK-129 (15 µM SK-129, stock solution concentration = 10 mM in DMSO) as described in the paralysis experiment. […] For each experiment, at least 15 worms were used, and the inclusions were counted manually, and each condition consisted of at least four independent experiments.

For the next experiment, the target named is T1, αS aggregation (Homo sapiens, UniProt P37840).
T1 construct: made in house; host or cells: Escherichia coli BL21(DE3), periplasm
The experiment can be described thus: SDS-PAGE analysis of soluble and insoluble αS fractions. The class given is biochemical. The settings on record: 100 µM αS, equimolar SK-129, four days. How it is done:
The solution of αS (100 µM) in the absence and presence of SK-129 were prepared in the aggregation buffer (20 mM NaCl, 20 mM NaPi, pH 6.5) and kept at 37 °C and constant shaking at 1200 rpm until the aggregation of αS plateaued (four days). The solutions were separated into soluble and insoluble fractions of αS by centrifugation at 22,000 × g for 20 min. Afterwards, 2 x Laemmli protein sample loading buffer (Biorad, Hercules, CA) was added to the fractions and boiled at 95 °C for 5 min and ran on a 12% Mini-PROTEAN precast protein gel (Biorad, Hercules, CA). In addition, we also quantified SDS-PAGE gel band intensities using ImageJ software. The gel-based experiments were repeated three times (n = 3) independently to ensure the reproducibility of the data. All the uncropped gels (from Main manuscript and Supplementary Figures) have been included in the Supplementary Data File as Supplementary Fig. 29.

Aβ42, sequence (P05067 672-713 limits assumed, species assumed): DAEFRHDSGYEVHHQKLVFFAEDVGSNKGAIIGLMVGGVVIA

Regarding `COC(=O)c1cc(OCC(=O)O)c2cccc(NC(=O)c3cc(OC(C)C)c4cccc(NC(=O)c5cc(OCC(=O)O)c6cccc(NC(=O)c7cc(OC(C)C)c8cccc([N+](=O)[O-])c8n7)c6n5)c4n3)c2n1` [SK-129], the “Kd for Aβ42 relative to αS” value on Aβ42 is “more than 15 fold”. Also, the “number of αS-YFP inclusions” value with NL5901 is recorded as 8–9 inclusions/C elegans. Also, the “αS fraction detected by SDS-PAGE” value on αS aggregation is “predominantly detected in the soluble fraction”.
